Source: paper PMC9820167, “Design and Synthesis of Conformationally Flexible Scaffold as Bitopic Ligands for Potent D3-Selective Antagonists” (International Journal of Molecular Sciences, 2022)
Where two headings read alike, the source gives them in different places.

How the values were obtained:
[1] = molecular target: Serotonin 5-HT2B (Homo sapiens, UniProt P41595); test: PDSP binding screen
[2] = molecular target: Serotonin 5-HT1D (Homo sapiens, UniProt P28221); test: PDSP binding screen
[3] = molecular target: Serotonin 5-HT7A (Homo sapiens, UniProt P34969); test: PDSP binding screen; settings: read-out: Ki (nM) or % inhibition at 10 µM: 5-HT7A
Chain of Serotonin 5-HT7A (P34969 1-445 isoform P34969-2): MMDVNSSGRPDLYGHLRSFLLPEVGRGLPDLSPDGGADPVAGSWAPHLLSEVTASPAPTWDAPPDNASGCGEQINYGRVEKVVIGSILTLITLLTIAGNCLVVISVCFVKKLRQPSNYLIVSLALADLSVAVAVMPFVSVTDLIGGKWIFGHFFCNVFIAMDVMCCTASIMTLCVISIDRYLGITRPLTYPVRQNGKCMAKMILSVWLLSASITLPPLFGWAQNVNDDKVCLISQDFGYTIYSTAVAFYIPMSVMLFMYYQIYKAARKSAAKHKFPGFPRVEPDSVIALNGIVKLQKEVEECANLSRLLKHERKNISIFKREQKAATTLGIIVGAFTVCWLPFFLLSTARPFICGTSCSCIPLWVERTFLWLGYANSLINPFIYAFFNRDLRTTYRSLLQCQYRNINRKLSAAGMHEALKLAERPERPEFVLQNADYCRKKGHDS

[4] = molecular target: human D3 receptors (Homo sapiens, UniProt P35462); test: β-arrestin recruitment assay (antagonist mode, competition with dopamine); assay type: cell-based; parameters: expressed in transfected cells; settings: for Emax: percentage of the maximum inhibition of dopamine at EC80 concentration, read-out: Imax (% Control)
Chain of human D3 receptors (P35462 whole entry): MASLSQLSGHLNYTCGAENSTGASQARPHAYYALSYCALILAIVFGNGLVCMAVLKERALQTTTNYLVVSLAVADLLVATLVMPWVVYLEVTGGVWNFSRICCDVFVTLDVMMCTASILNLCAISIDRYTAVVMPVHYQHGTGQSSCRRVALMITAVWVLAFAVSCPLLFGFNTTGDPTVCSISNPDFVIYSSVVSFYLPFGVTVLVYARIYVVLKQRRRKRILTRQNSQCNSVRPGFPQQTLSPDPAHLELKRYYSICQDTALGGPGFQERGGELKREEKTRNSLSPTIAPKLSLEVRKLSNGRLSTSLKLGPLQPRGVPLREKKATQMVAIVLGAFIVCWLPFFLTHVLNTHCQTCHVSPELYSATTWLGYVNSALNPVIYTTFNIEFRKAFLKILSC
Method: Two different assays were used to evaluate the properties of the analogs described above. The receptor binding affinity was measured by radioligand binding assays using [^125I]IABN with D2 or D3 receptors highly expressed HEK293 cells. The functional activity of the analogs was determined using a β-arrestin recruitment assay. The assay was initially conducted in agonist binding mode to confirm that they function as antagonists at the D3 receptor. Once this efficacy was confirmed, the assay was conducted in antagonist mode to determine the ability of the antagonist to compete with dopamine at the D3 receptor. The results of the antagonist mode assay are reported as IC50 values.
CHO-K1 cells which were overexpressed human D3 receptors were cultured in assaycomplete^TM cell culture kit 107. Cells were seeded at a density of 25,000 cells per well of 96-well plate, and incubated at 5% CO2, 37 °C. Two days later, test compounds were dissolved in DMSO, and diluted with 11-point series in phosphate-buffered saline (PBS). Prepared compounds were added to the cells, and it was incubated for 30 min at 5% CO2, 37 °C. Then, cells were treated with 30 nM (EC80) of dopamine, and the plate was incubated another 90 min. PathHunter^TM detection reagent was added to each well, and then plate was incubated for 80 min at RT in the dark. The chemiluminescent signal was measured by PerkinElmer Enspire plate reader (PerkinElmer, Boston, MA). Data were analyzed by Prism followed by non-linear regression.

[5] = molecular target: T1, Serotonin 5-HT2C (Homo sapiens, UniProt P28335); test: PDSP binding screen
T1 sequence (P28335 33-458): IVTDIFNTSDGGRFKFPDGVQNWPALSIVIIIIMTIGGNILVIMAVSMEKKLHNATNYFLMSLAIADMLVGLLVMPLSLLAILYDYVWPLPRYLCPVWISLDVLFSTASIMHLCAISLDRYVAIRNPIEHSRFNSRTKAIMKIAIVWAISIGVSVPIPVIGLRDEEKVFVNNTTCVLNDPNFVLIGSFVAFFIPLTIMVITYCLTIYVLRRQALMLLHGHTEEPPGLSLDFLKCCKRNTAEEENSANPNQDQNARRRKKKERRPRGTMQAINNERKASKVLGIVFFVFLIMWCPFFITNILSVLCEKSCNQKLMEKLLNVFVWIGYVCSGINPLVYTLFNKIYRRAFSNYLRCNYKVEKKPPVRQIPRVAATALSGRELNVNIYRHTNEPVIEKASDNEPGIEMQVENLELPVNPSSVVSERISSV

[6] = molecular target: Norepinephrine transporter (NET) (Homo sapiens, UniProt P23975); test: PDSP binding screen
Chain of Norepinephrine transporter (NET) (P23975 whole entry): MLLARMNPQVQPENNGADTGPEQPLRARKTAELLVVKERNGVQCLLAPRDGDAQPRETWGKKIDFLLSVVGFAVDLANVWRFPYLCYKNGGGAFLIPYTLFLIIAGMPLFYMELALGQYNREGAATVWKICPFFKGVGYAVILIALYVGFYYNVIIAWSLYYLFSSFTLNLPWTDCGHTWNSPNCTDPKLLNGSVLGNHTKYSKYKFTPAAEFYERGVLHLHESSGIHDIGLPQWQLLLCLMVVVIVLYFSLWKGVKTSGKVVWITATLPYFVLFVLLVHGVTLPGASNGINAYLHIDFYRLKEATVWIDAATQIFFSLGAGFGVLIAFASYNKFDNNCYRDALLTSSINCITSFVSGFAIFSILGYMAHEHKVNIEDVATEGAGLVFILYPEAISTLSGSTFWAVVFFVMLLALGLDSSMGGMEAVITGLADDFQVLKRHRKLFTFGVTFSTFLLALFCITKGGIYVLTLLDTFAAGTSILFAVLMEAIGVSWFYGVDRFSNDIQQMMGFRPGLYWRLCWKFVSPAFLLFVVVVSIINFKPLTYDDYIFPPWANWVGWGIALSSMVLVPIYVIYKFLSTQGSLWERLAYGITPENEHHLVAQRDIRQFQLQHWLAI

[7] = molecular target: T2, Serotonin 5-HT1A (Homo sapiens, UniProt P08908); test: PDSP binding screen
T2 sequence (P08908 1-422): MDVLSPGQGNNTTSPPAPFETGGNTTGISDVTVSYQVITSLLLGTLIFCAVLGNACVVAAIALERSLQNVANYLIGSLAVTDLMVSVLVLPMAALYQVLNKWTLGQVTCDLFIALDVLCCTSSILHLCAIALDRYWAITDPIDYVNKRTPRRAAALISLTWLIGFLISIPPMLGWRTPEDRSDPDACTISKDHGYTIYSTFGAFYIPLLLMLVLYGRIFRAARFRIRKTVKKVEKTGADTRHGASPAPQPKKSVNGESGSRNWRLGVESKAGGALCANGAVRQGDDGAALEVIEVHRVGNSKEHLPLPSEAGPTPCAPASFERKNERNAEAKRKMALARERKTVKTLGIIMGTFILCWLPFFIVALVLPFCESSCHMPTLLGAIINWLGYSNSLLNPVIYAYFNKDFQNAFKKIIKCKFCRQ

[8] = molecular target: T3, Serotonin 5-HT1E (Homo sapiens, UniProt P28566); test: PDSP binding screen; settings: read-out: Ki (nM) or % inhibition at 10 µM: 5-HT1E
T3 construct: Psychoactive Drug Screening Program (PDSP)
T3 sequence (P28566 whole entry): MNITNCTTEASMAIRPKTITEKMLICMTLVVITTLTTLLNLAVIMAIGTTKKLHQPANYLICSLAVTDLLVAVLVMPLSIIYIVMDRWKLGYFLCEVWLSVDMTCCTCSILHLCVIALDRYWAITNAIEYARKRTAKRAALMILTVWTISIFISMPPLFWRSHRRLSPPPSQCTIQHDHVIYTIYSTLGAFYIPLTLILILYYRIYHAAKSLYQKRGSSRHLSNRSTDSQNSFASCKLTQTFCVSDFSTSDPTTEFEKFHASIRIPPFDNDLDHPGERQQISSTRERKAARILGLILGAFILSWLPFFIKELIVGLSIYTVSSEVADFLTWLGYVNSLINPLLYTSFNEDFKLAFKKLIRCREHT
Source text: (§1) Based on the results in the dopamine receptor radioligand binding assays, nine flexible-based compounds were selected for further evaluation for off-target binding with other GPCRs through the Psychoactive Drug Screening Program (PDSP) (Supplemental Table S2). […] For example, many of the N-aryl piperazine-based analogs that our group developed in the past for either the D2 or D3 receptor had high affinity for the 5-HT1A receptor [55, 56, 57, 58]. […] This mitochondrial-based protein is typically used as a target for imaging neuroinflammation. The results of the PDSP-binding assays also confirmed the data obtained in our lab for the binding of this panel of nine compounds to D2 and D3 receptors (Supplemental Table S2).

[9] = molecular target: T4, Serotonin transporter (SERT) (Homo sapiens, UniProt P31645); test: PDSP binding screen
T4 construct: Psychoactive Drug Screening Program (PDSP)
T4 sequence (P31645 whole entry, species assumed): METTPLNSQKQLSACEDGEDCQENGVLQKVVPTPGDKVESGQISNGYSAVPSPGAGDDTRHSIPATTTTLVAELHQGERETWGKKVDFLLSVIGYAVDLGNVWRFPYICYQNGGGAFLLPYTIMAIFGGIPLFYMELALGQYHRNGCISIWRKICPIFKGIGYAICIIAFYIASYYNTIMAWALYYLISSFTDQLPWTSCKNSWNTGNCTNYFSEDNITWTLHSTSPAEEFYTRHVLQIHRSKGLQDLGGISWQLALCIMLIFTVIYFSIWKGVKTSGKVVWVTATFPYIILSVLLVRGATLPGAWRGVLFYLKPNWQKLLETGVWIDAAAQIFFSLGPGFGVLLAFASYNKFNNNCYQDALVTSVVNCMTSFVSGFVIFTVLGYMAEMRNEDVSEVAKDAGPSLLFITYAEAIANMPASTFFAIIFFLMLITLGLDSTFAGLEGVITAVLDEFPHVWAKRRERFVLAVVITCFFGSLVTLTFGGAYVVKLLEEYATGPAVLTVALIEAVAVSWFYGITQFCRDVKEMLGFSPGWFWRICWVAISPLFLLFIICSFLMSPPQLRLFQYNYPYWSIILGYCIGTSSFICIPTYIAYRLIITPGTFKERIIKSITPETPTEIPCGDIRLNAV
Source text: as §1

[10] = molecular target: T5, Serotonin 5-HT5A (Homo sapiens, UniProt P47898); test: PDSP binding screen; settings: read-out: Ki (nM) or % inhibition at 10 µM: 5-HT5A
T5 construct: Psychoactive Drug Screening Program (PDSP)
T5 sequence (P47898 whole entry): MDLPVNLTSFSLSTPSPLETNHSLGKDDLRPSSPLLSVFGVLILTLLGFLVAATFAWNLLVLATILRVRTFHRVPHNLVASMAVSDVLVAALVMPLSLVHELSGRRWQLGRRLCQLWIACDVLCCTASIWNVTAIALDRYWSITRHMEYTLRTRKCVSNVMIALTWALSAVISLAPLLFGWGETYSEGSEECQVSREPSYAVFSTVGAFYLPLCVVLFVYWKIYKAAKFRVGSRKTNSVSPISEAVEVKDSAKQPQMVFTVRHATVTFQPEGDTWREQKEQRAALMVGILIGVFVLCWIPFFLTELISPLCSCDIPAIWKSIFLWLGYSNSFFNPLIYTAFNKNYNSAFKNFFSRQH
Source text: as §1

[11] = molecular target: T6, Opioid DOR (Homo sapiens, UniProt P41143); test: PDSP binding screen; settings: read-out: Ki (nM) or % inhibition at 10 µM: DOR
T6 construct: Psychoactive Drug Screening Program (PDSP)
T6 sequence (P41143 whole entry): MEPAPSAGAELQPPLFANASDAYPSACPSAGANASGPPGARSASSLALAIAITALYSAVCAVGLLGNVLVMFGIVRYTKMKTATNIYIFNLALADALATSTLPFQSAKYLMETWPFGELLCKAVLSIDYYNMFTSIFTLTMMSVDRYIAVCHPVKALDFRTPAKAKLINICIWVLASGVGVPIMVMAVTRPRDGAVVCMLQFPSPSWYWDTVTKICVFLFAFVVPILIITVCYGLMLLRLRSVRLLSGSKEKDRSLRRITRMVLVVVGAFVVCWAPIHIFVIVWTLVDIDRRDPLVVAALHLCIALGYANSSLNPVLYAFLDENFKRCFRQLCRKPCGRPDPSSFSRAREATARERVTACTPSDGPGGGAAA
Source text: as §1

[12] = molecular target: BZP Rat Brain Site; test: PDSP binding screen; settings: HCl salts
[13] = molecular target: Opioid MOR (Homo sapiens, UniProt P35372); test: PDSP binding screen
Chain of Opioid MOR (P35372 whole entry): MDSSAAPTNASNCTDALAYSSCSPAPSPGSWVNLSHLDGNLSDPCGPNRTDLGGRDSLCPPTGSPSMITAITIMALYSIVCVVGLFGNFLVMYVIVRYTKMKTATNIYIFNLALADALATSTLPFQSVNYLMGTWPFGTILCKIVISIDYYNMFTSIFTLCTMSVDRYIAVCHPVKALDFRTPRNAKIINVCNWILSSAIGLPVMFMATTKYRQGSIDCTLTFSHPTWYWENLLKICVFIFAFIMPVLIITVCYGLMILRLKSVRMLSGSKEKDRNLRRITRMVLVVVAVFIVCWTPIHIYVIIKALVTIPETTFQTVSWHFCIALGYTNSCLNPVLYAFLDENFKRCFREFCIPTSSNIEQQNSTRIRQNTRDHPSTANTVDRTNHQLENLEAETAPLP

Chain of Serotonin 5-HT2B (P41595 whole entry): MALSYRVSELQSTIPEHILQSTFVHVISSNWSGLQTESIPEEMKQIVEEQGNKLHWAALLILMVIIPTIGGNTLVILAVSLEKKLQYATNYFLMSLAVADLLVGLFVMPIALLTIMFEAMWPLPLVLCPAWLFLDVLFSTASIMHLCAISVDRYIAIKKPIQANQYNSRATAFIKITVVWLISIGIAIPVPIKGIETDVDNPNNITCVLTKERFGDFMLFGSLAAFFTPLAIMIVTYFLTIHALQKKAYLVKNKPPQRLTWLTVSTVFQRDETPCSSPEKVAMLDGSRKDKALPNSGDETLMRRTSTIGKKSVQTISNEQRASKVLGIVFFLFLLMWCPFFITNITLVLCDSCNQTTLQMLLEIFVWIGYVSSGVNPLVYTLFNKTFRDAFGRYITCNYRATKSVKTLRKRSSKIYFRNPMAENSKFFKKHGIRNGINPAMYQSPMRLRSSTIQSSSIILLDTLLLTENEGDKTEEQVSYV
Chain of Serotonin 5-HT1D (P28221 whole entry): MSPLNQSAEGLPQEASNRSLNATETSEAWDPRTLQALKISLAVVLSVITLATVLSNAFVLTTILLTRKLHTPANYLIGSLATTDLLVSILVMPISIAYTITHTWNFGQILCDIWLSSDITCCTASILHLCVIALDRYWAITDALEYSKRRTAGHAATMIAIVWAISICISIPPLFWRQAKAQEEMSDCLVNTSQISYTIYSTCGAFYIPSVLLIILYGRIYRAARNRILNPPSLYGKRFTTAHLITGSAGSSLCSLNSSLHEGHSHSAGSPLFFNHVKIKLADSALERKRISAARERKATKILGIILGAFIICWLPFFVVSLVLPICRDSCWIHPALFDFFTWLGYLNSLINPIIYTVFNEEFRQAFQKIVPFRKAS

SMILES | Ki [1] [nM] | Ki [2] [nM] | inhibition at 10 µM [3] [%] | Emax [4] [%] | IC50 ([4]; potency for D3 receptors, CHO-K1 cells, vs 30 nM (EC80) dopamine, mean ± SD, three experiments, read-out: IC50) [nM] | Ki [5] [nM] | Ki [6] [nM] | Ki [7] [nM] | inhibition at 10 µM ([8]; PDSP, HCl salts) [%] | Ki ([9]; PDSP, HCl salts) [nM] | inhibition at 10 µM ([10]; PDSP, HCl salts) [%] | inhibition at 10 µM [11] [%] | Ki (nM) or % inhibition at 10 µM: BZP Rat Brain Site [12] | Ki [13] [nM] | IC50 [4] [nM] | inhibition at 10 µM [8] [%] | inhibition at 10 µM ([9]; read-out: Ki (nM) or % inhibition at 10 µM: Serotonin transporter (SERT)) [%] | inhibition at 10 µM [10] [%]
CCCN(CCCNC(=O)c1ccc(-c2cccs2)cc1)CCNC(=O)c1cc(Br)cc(OC)c1OC [20a, 5-Bromo-2,3-dimethoxy-N-(2-(propyl(3-(4-(thiophen-2-yl)benzamido)propyl)amino)ethyl)benzamide] | 170 | 449 | < 50 | 88.1 ± 20.4 | 26.5 ± 12.9 | 2020 | 3510 | 194 | < 50 | 5850 | < 50 | < 50 | N/A (N/A; not active means less than 50% inhibition that was obtained in primary binding assay at 10 µM of the compound) | 3020 | – | – | – | –
CCN(CCCNC(=O)c1ccc(-c2cccs2)cc1)CCNC(=O)c1cc(Br)cc(OC)c1OC [9a, 5-Bromo-N-(2-(ethyl(3-(4-(thiophen-2-yl)benzamido)propyl)amino)ethyl)-2,3-dimethoxybenzamide] | 187 | 1010 | < 50 | 67.3 ± 18.9 | – | 577 | 772 | 1740 | – | – | – | < 50 | N/A (N/A; not active means less than 50% inhibition that was obtained in primary binding assay at 10 µM of the compound) | 1560 | 14 ± 7.4 | < 50 | < 50 | < 50
